Legend:
RAW264.7 [1] = experiment: Antiinflammatory activity in mouse RAW264.7 cells assessed as inhibition of KLA-induced TNFalpha expression at 0.06 mg/ml and measured after 24 hrs by ELISA; assay type: functional
RAW264.7 [2] = experiment: Antiinflammatory activity in mouse RAW264.7 cells assessed as inhibition of LPS-induced IL-1beta production; assay type: functional, cell-based
RAW264.7 [3] = experiment: Antiinflammatory activity in mouse RAW264.7 cells assessed as inhibition of LPS-induced TNF-alpha production; assay type: functional, cell-based
RAW264.7 [4] = experiment: Antiinflammatory activity in mouse RAW264.7 cells assessed as inhibition of LPS-induced IL-6 production; assay type: functional, cell-based
RAW264.7 [5] = experiment: Antiinflammatory activity in mouse RAW264.7 cells assessed as inhibition of LPS-induced TNFalpha production at 10 uM preincubated for 2 hrs followed by LPS stimulation and measured after 24 hrs by ELISA; assay type: functional; details: time 26 hrs
RAW264.7 [6] = experiment: Antiinflammatory activity in mouse RAW264.7 cells assessed as inhibition of LPS-induced IL-6 production at 3 uM preincubated for 2 hrs followed by LPS stimulation and measured after 24 hrs by ELISA; assay type: functional; details: time 26 hrs
RAW264.7 [7] = experiment: Antiinflammatory activity in mouse RAW264.7 cells assessed as inhibition of LPS-induced TNFalpha production at 100 uM preincubated for 2 hrs followed by LPS stimulation and measured after 24 hrs by ELISA; assay type: functional; details: time 26 hrs
RAW264.7 [8] = experiment: Antiinflammatory activity in mouse RAW264.7 cells assessed as inhibition of LPS-induced NO production at 3 uM preincubated for 2 hrs followed by LPS stimulation and measured after 24 hrs by Griess method; assay type: functional; details: time 26 hrs
RAW264.7 [9] = experiment: Antiinflammatory activity in mouse RAW264.7 cells assessed as inhibition of LPS-induced NO production at 30 uM preincubated for 2 hrs followed by LPS stimulation and measured after 24 hrs by Griess method; assay type: functional; details: time 26 hrs
RAW264.7 [10] = experiment: Antiinflammatory activity in mouse RAW264.7 cells assessed as inhibition of LPS-induced NO production at 100 uM preincubated for 2 hrs followed by LPS stimulation and measured after 24 hrs by Griess method; assay type: functional; details: time 26 hrs
RAW264.7 [11] = experiment: Antiinflammatory activity in mouse RAW264.7 cells assessed as inhibition of LPS-induced TNFalpha production at 30 uM preincubated for 2 hrs followed by LPS stimulation and measured after 24 hrs by ELISA; assay type: functional; details: time 26 hrs
RAW264.7 [12] = experiment: Antiinflammatory activity in mouse RAW264.7 cells assessed as inhibition of LPS-induced TNFalpha production at 3 uM preincubated for 2 hrs followed by LPS stimulation and measured after 24 hrs by ELISA; assay type: functional; details: time 26 hrs
RAW264.7 [13] = experiment: Antiinflammatory activity in mouse RAW264.7 cells assessed as inhibition of LPS-induced IL-6 production at 100 uM preincubated for 2 hrs followed by LPS stimulation and measured after 24 hrs by ELISA; assay type: functional; details: time 26 hrs
RAW264.7 [14] = experiment: Antiinflammatory activity in mouse RAW264.7 cells assessed as inhibition of LPS-induced IL-6 production at 30 uM preincubated for 2 hrs followed by LPS stimulation and measured after 24 hrs by ELISA; assay type: functional; details: time 26 hrs
RAW264.7 [15] = experiment: Antiinflammatory activity in mouse RAW264.7 cells assessed as inhibition of LPS-induced IL-6 production at 10 uM preincubated for 2 hrs followed by LPS stimulation and measured after 24 hrs by ELISA; assay type: functional; details: time 26 hrs
RAW264.7 [16] = experiment: Antiinflammatory activity in mouse RAW264.7 cells assessed as inhibition of LPS-induced NO production at 10 uM preincubated for 2 hrs followed by LPS stimulation and measured after 24 hrs by Griess method; assay type: functional; details: time 26 hrs
[17] = Antioxidant activity assessed as nitroblue tetrazolium superoxide radical scavenging activity incubated for 10 mins by spectrophotometric analysis; assay type: functional
[18] = Antioxidant activity assessed as nitroblue tetrazolium superoxide radical scavenging activity by spectrophotometric analysis; assay type: functional
RAW264.7 [19] = experiment: Antiinflammatory activity in mouse RAW264.7 cells assessed as inhibition of LPS-induced NO production preincubated for 0.5 hrs followed by LPS stimulation and measured after 24 hrs by Griess reagent based analysis; assay type: functional, cell-based
[20] = Cytotoxicity against mouse RAW264.7 cells assessed as reduction in cell viability by MTT assay; assay type: toxicity, cell-based
J774.1 [21] = experiment: Cytotoxicity in mouse J774.1 cells assessed as reduction in cell viability at 100 microg/ml; assay type: toxicity, cell-based; details: at 100 µg/mL
J774.1 [22] = experiment: Antiinflammatory activity in mouse J774.1 cells assessed as inhibition of LPS-induced NO production incubated for 48 hrs by Griess reagent based analysis; assay type: functional, cell-based; details: Mus musculus, J774.1, 48 h
J774.1 [23] = experiment: Antiinflammatory activity in mouse J774.1 cells assessed as inhibition of LPS-induced NO production at 100 microg/ml; assay type: functional
Mus musculus = experiment: Antiinflammatory activity in ICR mouse model of TPA-induced ear edema assessed as inhibition of ear inflammation at 1 mg,TOP for 30 mins followed by TPA addition and measured after 6 hrs; assay type: functional; details: time 390 min, 6.5 h
BV-2 = experiment: Antiinflammatory activity in mouse BV-2 cells assessed as inhibition of LPS-induced NO production at 10 uM preincubated for 1 hrs followed by LPS stimulation and measured after 24 hrs by Griess assay; assay type: functional; details: time 25 hrs
Hepatocyte [24] = experiment: Hepatoprotective activity against CCL4-induced rat hepatocyte toxicity assessed as decrease in IL-1beta level at 1 uM preincubated for 30 mins followed by CCL4 addition and measured after 180 mins by ELISA; assay type: functional; parameters: scale not given: the % may be the effect or the level left; details: time 210 min
RAW264.7 [25] = experiment: Antiinflammatory activity in mouse RAW264.7 cells assessed as inhibition of LPS-induced NO production preincubated for 1 hrs followed by LPS stimulation and measured after 24 hrs by Griess method; assay type: functional, cell-based
RAW264.7 [26] = experiment: Antiinflammatory activity in mouse RAW264.7 cells assessed as inhibition of LPS-induced TNFalpha level preincubated for 1 hrs followed by LPS stimulation and measured after 24 hrs by ELISA; assay type: functional, cell-based
Hepatocyte [27] = experiment: Hepatoprotective activity against CCL4-induced rat hepatocyte toxicity assessed as decrease in TNF-alpha level at 1 uM preincubated for 30 mins followed by CCL4 addition and measured after 180 mins by ELISA; assay type: functional; parameters: scale not given: the % may be the effect or the level left; details: time 210 min
Hepatocyte [28] = experiment: Hepatoprotective activity against CCL4-induced rat hepatocyte toxicity assessed as decrease in TBARS level by measuring MDA formation at 1 uM preincubated for 30 mins followed by CCL4 addition and measured after 180 mins by TBARS method; assay type: functional; parameters: scale not given: the % may be the effect or the level left; details: time 210 min
Hepatocyte [29] = experiment: Hepatoprotective activity against CCL4-induced rat hepatocyte toxicity assessed as decrease in ALT level at 1 uM preincubated for 30 mins followed by CCL4 addition and measured after 180 mins by colorimetric method; assay type: functional; parameters: scale not given: the % may be the effect or the level left; details: time 210 min

O=C(CCc1ccccc1)C[C@@H](O)CCc1ccccc1
inhibition at 60 µg/mL (RAW264.7 [1]): 35%

COc1cc2cc(c1O)-c1cc(ccc1O)CC[C@H](O)CCCC2
IC50 (RAW264.7 [2]): 17.9 µM | IC50 (RAW264.7 [3]): 19.5 µM | IC50 (RAW264.7 [4]): 20.3 µM

COc1cc([C@H]2C[C@H](O)C[C@@H]([C@@H](O)Cc3ccc(O)cc3)O2)ccc1O
inhibition at 10 µM (RAW264.7 [5]): 41% | inhibition at 3 µM (RAW264.7 [6]): 40% | inhibition at 100 µM (RAW264.7 [7]): 41% | inhibition at 3 µM (RAW264.7 [8]): 34% | inhibition at 30 µM (RAW264.7 [9]): 34% | inhibition at 100 µM (RAW264.7 [10]): 34% | inhibition at 30 µM (RAW264.7 [11]): 41% | inhibition at 3 µM (RAW264.7 [12]): 41% | inhibition at 100 µM (RAW264.7 [13]): 40% | inhibition at 30 µM (RAW264.7 [14]): 40% | inhibition at 10 µM (RAW264.7 [15]): 40% | inhibition at 10 µM (RAW264.7 [16]): 34%

Oc1ncnc2[nH]ncc12 [ALLOPURINOL]
IC50 [17]: 3.9 µM | IC50 [18]: 8 µM

COc1cc(CC[C@@H](C[C@H](O)[C@@H](O)Cc2ccc(O)cc2)O[C@@H]2OC[C@@H](O)[C@H](O)[C@H]2O)ccc1O
inhibition at 10 µM (RAW264.7 [5]): 36% | inhibition at 3 µM (RAW264.7 [6]): 43% | inhibition at 100 µM (RAW264.7 [7]): 36% | inhibition at 3 µM (RAW264.7 [8]): 39% | inhibition at 30 µM (RAW264.7 [9]): 39% | inhibition at 100 µM (RAW264.7 [10]): 39% | inhibition at 30 µM (RAW264.7 [11]): 36% | inhibition at 3 µM (RAW264.7 [12]): 36% | inhibition at 100 µM (RAW264.7 [13]): 43% | inhibition at 30 µM (RAW264.7 [14]): 43% | inhibition at 10 µM (RAW264.7 [15]): 43% | inhibition at 10 µM (RAW264.7 [16]): 39%

O=C(/C=C/c1ccc(O)c(O)c1)CC/C=C/c1ccc(O)c(O)c1
IC50 (RAW264.7 [19]): 2.9 µM | IC50 [20]: 9 µM

O=C(/C=C/C=C/c1ccc(O)c(O)c1)CCc1ccc(O)c(O)c1
IC50 (RAW264.7 [19]): 8.6 µM | IC50 [20]: 36.4 µM

COc1cc(O)c([C@@H](/C=C/C[C@@H](O)CCc2ccc(O)cc2)c2ccc(O)cc2)c(O)c1C(=O)/C=C/c1ccc(O)cc1
Activity (J774.1 [21]): 85% | IC50 (J774.1 [22]): 39 µM | inhibition at 100 µg/mL (J774.1 [23]): 90%

COc1cc(CC[C@H](O)C[C@H](O)[C@@H](O)Cc2ccc(O)cc2)ccc1O
inhibition at 10 µM (RAW264.7 [5]): 39% | inhibition at 3 µM (RAW264.7 [6]): 57% | inhibition at 100 µM (RAW264.7 [7]): 39% | inhibition at 3 µM (RAW264.7 [8]): 43% | inhibition at 30 µM (RAW264.7 [9]): 43% | inhibition at 100 µM (RAW264.7 [10]): 43% | inhibition at 30 µM (RAW264.7 [11]): 39% | inhibition at 3 µM (RAW264.7 [12]): 39% | inhibition at 100 µM (RAW264.7 [13]): 57% | inhibition at 30 µM (RAW264.7 [14]): 57% | inhibition at 10 µM (RAW264.7 [15]): 57% | inhibition at 10 µM (RAW264.7 [16]): 43%

O=c1c(O)c(-c2ccc(O)c(O)c2)oc2cc(O)cc(O)c12 [QUERCETIN]
IC50 (RAW264.7 [2]): 16.9 µM | IC50 (RAW264.7 [3]): 13.6 µM | ID50 (Mus musculus): 1.6 mg | IC50 (RAW264.7 [4]): 16.8 µM

COC(=O)[C@@H](N)CCCNC(=N)N[N+](=O)[O-] [L-NAME]
inhibition at 10 µM (BV-2): 70.5%

COc1cc(O)c([C@@H](/C=C/C[C@@H](O)CCc2ccc(O)cc2)c2ccc(O)cc2)c2oc(-c3ccc(O)cc3)cc(=O)c12 (stereo in doubt; 112)
Activity (J774.1 [21]): 85% | IC50 (J774.1 [22]): 104 µM | inhibition at 100 µg/mL (J774.1 [23]): 90%

Oc1ccc(CC[C@@H](O)C[C@H](O)CCc2ccc(O)cc2)cc1 [(+)-HANNOKINOL]
inhibition at 10 µM (BV-2): 51.3%

COc1cc(/C=C/C(=O)CC(=O)/C=C/c2ccc(O)c(OC)c2)ccc1O [CURCUMIN]
Activity (Hepatocyte [24]): 63.3% | IC50 (RAW264.7 [25]): 12.3 µM | IC50 (RAW264.7 [26]): 11.2 µM | Activity (Hepatocyte [27]): 37.1% | Activity (Hepatocyte [28]): 39.2% | Activity (Hepatocyte [29]): 57.6%

From ChEMBL document CHEMBL5233262, “Anti-inflammatory activity of naturally occuring diarylheptanoids - A review” (Bioorg Med Chem, 2021)
